Reference: patent publication US8440710B2, “HSL inhibitors useful in the treatment of diabetes” (Hoffmann-La Roche Inc., priority 2009, dated 2013)

Molecular target: T1, human HSL (Homo sapiens, UniProt Q05469)
T1 construct: generate a full length human HSL ORF with a 3′-His6 tag; made in house; host or cells: High 5 insect cells (baculovirus, pFast-BAC)
T1 sequence (Q05469 1-1076): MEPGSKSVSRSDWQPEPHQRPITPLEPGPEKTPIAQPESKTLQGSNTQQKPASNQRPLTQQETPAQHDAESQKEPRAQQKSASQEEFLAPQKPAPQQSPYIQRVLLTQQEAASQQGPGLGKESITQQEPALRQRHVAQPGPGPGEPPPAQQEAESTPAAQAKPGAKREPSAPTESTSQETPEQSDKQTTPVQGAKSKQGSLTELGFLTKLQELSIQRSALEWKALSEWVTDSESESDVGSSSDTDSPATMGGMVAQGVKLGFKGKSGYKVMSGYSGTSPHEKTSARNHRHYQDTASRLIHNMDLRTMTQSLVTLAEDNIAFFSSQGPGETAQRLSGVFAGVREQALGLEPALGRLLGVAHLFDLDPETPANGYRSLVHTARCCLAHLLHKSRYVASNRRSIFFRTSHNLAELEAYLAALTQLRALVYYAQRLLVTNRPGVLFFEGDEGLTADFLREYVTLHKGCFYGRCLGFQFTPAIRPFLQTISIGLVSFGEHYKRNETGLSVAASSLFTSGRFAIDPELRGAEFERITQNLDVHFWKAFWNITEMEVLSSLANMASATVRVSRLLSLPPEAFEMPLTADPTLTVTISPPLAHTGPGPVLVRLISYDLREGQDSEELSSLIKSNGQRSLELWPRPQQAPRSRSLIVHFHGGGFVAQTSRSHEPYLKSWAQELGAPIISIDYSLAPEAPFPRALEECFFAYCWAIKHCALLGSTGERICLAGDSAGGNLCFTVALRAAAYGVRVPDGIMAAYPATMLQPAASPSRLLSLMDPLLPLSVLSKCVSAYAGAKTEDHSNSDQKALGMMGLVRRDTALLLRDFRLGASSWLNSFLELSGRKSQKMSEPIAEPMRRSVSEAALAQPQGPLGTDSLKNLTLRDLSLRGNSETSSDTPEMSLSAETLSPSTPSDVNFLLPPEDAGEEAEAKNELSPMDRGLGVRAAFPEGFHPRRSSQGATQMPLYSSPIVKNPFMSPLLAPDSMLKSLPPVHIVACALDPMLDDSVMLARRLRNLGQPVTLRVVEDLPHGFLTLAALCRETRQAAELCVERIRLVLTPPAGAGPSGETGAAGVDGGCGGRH
Assay: Human Hormone-Sensitive Lipase (HSL) enzyme inhibition assay (colorimetric, DMPT substrate)
Assay type: biochemical
Conditions: human full length HSL-His6, 2,3-dimercapto-1-propanol tributyrate substrate, 37° C. 20 minutes, absorbance at 405 nm; read-out: HSL hum IC50
In short: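 Full-length human HSL with C-terminal His6, expressed in baculovirus-infected High 5 cells and Ni-NTA purified, was added (15 ug/ml stock) to 1.5 mM DMPT in 100 mM MOPS pH 7.2, 0.2 mg/ml fatty acid-free BSA containing compound. After 20 min at 37 °C, DTNB with SDS/Triton X-100 was added; A405 read after 15 min at RT.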

SMILES | IC50
C=Cc1nnn(C)c1[C@]1(O)CC[C@]2(CCN(c3ccc(OC(C)C)cc3)C2=O)CC1 [Example 222, (5α,8α)-8-hydroxy-2-(4-isopropoxyphenyl)-8-(1-methyl-4-vinyl-1H-1,2,3-triazol-5-yl)-2-aza-spiro[4.5]decan-1-one] | 0.103 µM
COC[C@]1(O)CC[C@]2(CCN(c3ccc(C4CC4)cc3)C2=O)CC1 [Example 223, (5α,8α)-2-(4-Cyclopropyl-phenyl)-8-hydroxy-8-methoxymethyl-2-aza-spiro[4.5]decan-1-one] | 0.05 µM
CCc1ccc(N2CC[C@]3(CC[C@@](O)(COC)CC3)C2=O)cc1 [Example 224, (5α,8α)-2-(4-Ethyl-phenyl)-8-hydroxy-8-methoxymethyl-2-aza-spiro[4.5]decan-1-one] | 0.15 µM
CCOC[C@]1(O)CC[C@]2(CCN(c3ccc(CC)cc3)C2=O)CC1 [Example 225, (5α,8α)-8-Ethoxymethyl-2-(4-ethyl-phenyl)-8-hydroxy-2-aza-spiro[4.5]decan-1-one] | 0.06 µM
CCCOC[C@]1(O)CC[C@]2(CCN(c3ccc(CC)cc3)C2=O)CC1 [Example 226, (5α,8α)-2-(4-Ethyl-phenyl)-8-hydroxy-8-propoxymethyl-2-aza-spiro[4.5]decan-1-one] | 0.02 µM
CCc1ccc(N2CC[C@]3(CC[C@](O)(COc4ccccc4)CC3)C2=O)cc1 [Example 227, (5α,8β)-2-(4-Ethyl-phenyl)-8-hydroxy-8-phenoxymethyl-2-aza-spiro[4.5]decan-1-one] | 0.7 µM
CCc1ccc(N2CC[C@]3(CC[C@@](O)(COc4ccccc4)CC3)C2=O)cc1 [Example 228, (5α,8α)-2-(4-Ethyl-phenyl)-8-hydroxy-8-phenoxymethyl-2-aza-spiro[4.5]decan-1-one] | 0.02 µM
CCc1ccc(N2CC[C@]3(CC[C@@](O)(COCCOC)CC3)C2=O)cc1 [Example 229, (5α,8α)-2-(4-Ethyl-phenyl)-8-hydroxy-8-(2-methoxy-ethoxymethyl)-2-aza-spiro[4.5]decan-1-one] | 0.13 µM
CCc1ccc(N2CC[C@]3(CC[C@](O)(COCC(F)(F)F)CC3)C2=O)cc1 [Example 230, (5α,8β)-2-(4-Ethyl-phenyl)-8-hydroxy-8-(2,2,2-trifluoro-ethoxymethyl)-2-aza-spiro[4.5]decan-1-one] | 0.4 µM
CCc1ccc(N2CC[C@]3(CC[C@@](O)(COCC(F)(F)F)CC3)C2=O)cc1 [Example 231, (5α,8α)-2-(4-Ethyl-phenyl)-8-hydroxy-8-(2,2,2-trifluoro-ethoxymethyl)-2-aza-spiro[4.5]decan-1-one] | 0.02 µM
O=C1N(c2ccc(OCC(F)(F)F)cc2)CC[C@]12CC[C@](O)(COCC(F)(F)F)CC2 [Example 232, (5α,8β)-8-Hydroxy-8-(2,2,2-trifluoro-ethoxymethyl)-2-[4-(2,2,2-trifluoro-ethoxy)-phenyl]-2-aza-spiro[4.5]decan-1-one] | 0.29 µM
O=C1N(c2ccc(OCC(F)(F)F)cc2)CC[C@]12CC[C@@](O)(COCC(F)(F)F)CC2 [Example 233, (5α,8α)-8-Hydroxy-8-(2,2,2-trifluoro-ethoxymethyl)-2-[4-(2,2,2-trifluoro-ethoxy)-phenyl]-2-aza-spiro[4.5]decan-1-one] | 0.02 µM
CCOC[C@]1(O)CC[C@]2(CCN(c3ccc(OCC(F)(F)F)cc3)C2=O)CC1 [Example 234, (5α,8α)-8-Ethoxymethyl-8-hydroxy-2-[4-(2,2,2-trifluoro-ethoxy)phenyl]-2-aza-spiro[4.5]decan-1-one] | 0.04 µM
CCCOC[C@]1(O)CC[C@@]2(CCN(c3ccc(OCC(F)(F)F)cc3)C2=O)CC1 [Example 235, (5α,8β)-8-Hydroxy-8-propoxymethyl-2-[4-(2,2,2-trifluoro-ethoxy)-phenyl]-2-aza-spiro[4.5]decan-1-one] | 0.63 µM
CCCOC[C@]1(O)CC[C@]2(CCN(c3ccc(OCC(F)(F)F)cc3)C2=O)CC1 [Example 236, (5α,8α)-8-Hydroxy-8-propoxymethyl-2-[4-(2,2,2-trifluoro-ethoxy)-phenyl]-2-aza-spiro[4.5]decan-1-one] | 0.02 µM
CCCCOC[C@]1(O)CC[C@@]2(CCN(c3ccc(OCC(F)(F)F)cc3)C2=O)CC1 [Example 237, (5α,8β)-8-Butoxymethyl-8-hydroxy-2-[4-(2,2,2-trifluoro-ethoxy)-phenyl]-2-aza-spiro[4.5]decan-1-one] | 0.27 µM
CCCCOC[C@]1(O)CC[C@]2(CCN(c3ccc(OCC(F)(F)F)cc3)C2=O)CC1 [Example 238, (5α,8α)-8-Butoxymethyl-8-hydroxy-2-[4-(2,2,2-trifluoro-ethoxy)-phenyl]-2-aza-spiro[4.5]decan-1-one] | 0.02 µM
O=C1N(c2ccc(OCC(F)(F)F)cc2)CC[C@]12CC[C@](O)(COc1ccccc1)CC2 [Example 239, (5α,8β)-8-Hydroxy-8-phenoxymethyl-2-[4-(2,2,2-trifluoro-ethoxy)-phenyl]-2-aza-spiro[4.5]decan-1-one] | 0.14 µM
O=C1N(c2ccc(OCC(F)(F)F)cc2)CC[C@]12CC[C@@](O)(COc1ccccc1)CC2 [Example 240, (5α,8α)-8-Hydroxy-8-phenoxymethyl-2-[4-(2,2,2-trifluoro-ethoxy)-phenyl]-2-aza-spiro[4.5]decan-1-one] | 0.02 µM
O=C1N(c2ccc(OCC(F)(F)F)cc2)CC[C@]12CC[C@](O)(COCc1ccccc1)CC2 [Example 241, (5α,8β)-8-Benzyloxymethyl-8-hydroxy-2-[4-(2,2,2-trifluoro-ethoxy)-phenyl]-2-aza-spiro[4.5]decan-1-one] | 0.09 µM
O=C1N(c2ccc(OCC(F)(F)F)cc2)CC[C@]12CC[C@@](O)(COCc1ccccc1)CC2 [Example 242, (5α,8α)-8-Benzyloxymethyl-8-hydroxy-2-[4-(2,2,2-trifluoro-ethoxy)-phenyl]-2-aza-spiro[4.5]decan-1-one] | 0.01 µM
O=C1N(c2ccc(OCC(F)(F)F)cc2)CC[C@]12CC[C@](O)(COCC(F)F)CC2 [Example 243, (5α,8β)-8-(2,2-Difluoro-ethoxymethyl)-8-hydroxy-2-[4-(2,2,2-trifluoro-ethoxy)-phenyl]-2-aza-spiro[4.5]decan-1-one] | 0.3 µM
O=C1N(c2ccc(OCC(F)(F)F)cc2)CC[C@]12CC[C@@](O)(COCC(F)F)CC2 [Example 244, (5α,8α)-8-(2,2-Difluoro-ethoxymethyl)-8-hydroxy-2-[4-(2,2,2-trifluoro-ethoxy)-phenyl]-2-aza-spiro[4.5]decan-1-one] | 0.03 µM
CC(C)COC[C@]1(O)CC[C@@]2(CCN(c3ccc(OCC(F)(F)F)cc3)C2=O)CC1 [Example 245, (5α,8β)-8-Hydroxy-8-isobutoxymethyl-2-[4-(2,2,2-trifluoro-ethoxy)-phenyl]-2-aza-spiro[4.5]decan-1-one] | 0.28 µM
CC(C)COC[C@]1(O)CC[C@]2(CCN(c3ccc(OCC(F)(F)F)cc3)C2=O)CC1 [Example 246, (5α,8α)-8-Hydroxy-8-isobutoxymethyl-2-[4-(2,2,2-trifluoro-ethoxy)-phenyl]-2-aza-spiro[4.5]decan-1-one] | 0.64 µM
CCOC[C@]1(O)CC[C@]2(CCN(c3ccc(OCC(F)(F)F)nc3)C2=O)CC1 [Example 247, (5α,8α)-8-Ethoxymethyl-8-hydroxy-2-[6-(2,2,2-trifluoro-ethoxy)-pyridin-3-yl]-2-aza-spiro[4.5]decan-1-one] | 0.07 µM
CCOC[C@]1(O)CC[C@@]2(CCN(c3ccc(O[C@@H](C)C(F)(F)F)nc3)C2=O)CC1 [Example 248, (5α,8β)-8-Ethoxymethyl-8-hydroxy-2-[6-((S)-2,2,2-trifluoro-1-methyl-ethoxy)-pyridin-3-yl]-2-aza-spiro[4.5]decan-1-one] | 0.34 µM
CCOC[C@]1(O)CC[C@]2(CCN(c3ccc(O[C@@H](C)C(F)(F)F)nc3)C2=O)CC1 [Example 249, (5α,8α)-8-Ethoxymethyl-8-hydroxy-2-[6-((S)-2,2,2-trifluoro-1-methyl-ethoxy)-pyridin-3-yl]-2-aza-spiro[4.5]decan-1-one] | 0.02 µM
CCOC[C@]1(O)CC[C@@]2(CCN(c3ccc(O[C@@H](C)C(F)(F)F)cc3)C2=O)CC1 [Example 250, (5α,8β)-8-Ethoxymethyl-8-hydroxy-2-[4-((S)-2,2,2-trifluoro-1-methyl-ethoxy)-phenyl]-2-aza-spiro[4.5]decan-1-one] | 0.6 µM
